Reference: US10675260B2, “Methods and pharmaceutical compositions for preventing or treating immunoinflammatory dermal disorders” (TWi Biotechnology, Inc., priority 2017, dated 2020)

Columns and labels:
IL-6 = experiment: Pro-inflammatory cytokine measurement: IL-6 in culture supernatant by ELISA; format: cell-based, human; conditions: HaCaT cells treated with BP-IgG or specific anti-BP180 IgG 2 mg/mL; 0.1, 1, 10 μM; 48 h
Experimental: (§1) HaCaT cells (CLS Cell Lines Service, Germany) were cultured in Dulbecco's modified eagle medium (DMEM) medium supplemented with 4.5 g/L glucose, 2 mM L-glutamine and 10% fetal bovine serum. Cells were seeded on 24- or 12-well plates and grown to 80% confluence for the following assays. Cytokine measurement was conducted based on previous studies. Briefly, cells were incubated with medium alone or with 2 mg/mL purified BP-IgG or Specific-IgG and cultured in absence or presence of diacerein or berberine or clobetasol propionate (0.1, 1, and 10 μM) and culture supernatants were collected after 48 h of incubation, and stored for analysis at −20° C. IL-6 and IL-8 levels were analyzed in cell culture supernatants by ELISA (BD Biosciences) according to the manufacturer's instructions.

IL-8 = experiment: Pro-inflammatory cytokine measurement: IL-8 in culture supernatant by ELISA; format: cell-based, human; conditions: 48 h
Experimental: as §1

IL-8 mRNA = experiment: Quantitation of IL-8 mRNA expression by quantitative real-time PCR; format: cell-based, human; conditions: BP IgG-treated HaCaT cells; 0.1, 1, 10 μM; 48 h; RT-qPCR normalized to GAPDH
Experimental: (§2) IL-6 and IL-8 messenger RNA (mRNA) levels were quantitated using quantitative real-time polymerase chain reaction (qPCR) as reported previously. BP IgG-treated HaCaT cells were cultured with or without diacerein or berberine or clobetasol propionate for 48 h. Total RNA was isolated from cultured HaCaT cells using TRIzol reagent (LifeTechnologies) according to the manufacturer's instruction. Complementary DNA (cDNA) was reverse-transcribed from isolated RNA by incubating 1 μg of RNA with the RevertAid First Strand cDNA Synthesis Kit (Thermo Scientific) following the manufacturer's instructions. Quantitative RT-PCR was performed in a Mastercycler (Eppendorf) using SYBR® Select Master Mix (Life Technologies). PCR mixtures contained 0.5 μM of each forward and reverse primers. Each reaction mixture was subjected to 2 min at 50° C. and 2 min at 95° C. followed by 40 cycles with 15 seconds at 95° C. and 1 min at 60° C. Data were normalized to the housekeeping gene glyceraldehyde-3-phosphate dehydrogenase (GAPDH). The primers used in RT-PCR were as follows: IL-8 messenger RNA (mRNA), forward, 5′-ACCGGAAGGAACCATCTCAC-3′, and reverse, 5′-AAACTGCACCTTCACACAGAG-3′ and IL-6 messenger RNA (mRNA), forward, 5′-GGTACATCCTCGACGGCATCT-3′, and reverse, 5′-GTGCCTCTTTGCTGCTTTCAC-3′ and GAPDH, forward, 5′-ACAACTTTGGTATCGTGGAAGG-3′, and reverse, 5′-GCC ATC ACG CCA CAG TTT-3′.

HaCaT cells = format: cell-based; conditions: 48 h, MTT
Experimental: HaCaT cells (CLS Cell Lines Service, Germany) were cultured in Dulbecco's modified eagle medium (DMEM) medium supplemented with 4.5 g/L glucose, 2 mM L-glutamine and 10% fetal bovine serum. Cells were seeded on 24- or 12-well plates and grown to 80% confluence for the following assays.
Exponentially growing cells of passage #3-6 (3000 cells/well in 100 μl medium) were plated in 96-well plates overnight to allow cell attachment (80% confluency) and then exposed to different concentrations of diacerein (0.1, 1, 10 μM) or berberine (0.1, 1, 10 μM) or clobetasol propionate (0.1, 1, 10 μM), and either 2 mg/mL of Healthy-IgG BP-IgG or Specific-IgG at 37° C. for 48 h.
Following drug treatment, the cell culture media were gently removed. Cells were then gently washed three times with warm medium to remove any de-attached and dead cells. Cells were incubated with MTT reagent in cell culture medium at a final concentration of 1.0 mg/mL for 2 h. The quantity of formazan (presumably directly proportional to the number of viable cells) was measured by recording changes in absorbance at 570 nm using an ELISA plate reader.

IL-6 mRNA = experiment: Quantitation of IL-6 mRNA expression by quantitative real-time PCR; format: cell-based, human; conditions: BP IgG-treated HaCaT cells; 0.1, 1, 10 μM; 48 h; RT-qPCR normalized to GAPDH
Experimental: as §2

BP180 = experiment: Immunofluorescence study of BP180 internalization in keratinocytes treated with BP-IgG; format: cell-based, human; conditions: 0.1 to 10 μM, confocal microscopy
Experimental: For this BP180 internalization study, IgG purification from BP patients and cell culture treated with different IgG and drugs (diacerein or berberine) were performed according to the procedures described in Example 1. Keratinocytes grown on glass coverslips were fixed in 4% paraformaldehyde, washed thoroughly in PBS, and permeabilized in 0.1% (v/v) Triton X-100 in PBS for 10 minutes. Primary antibodies were overlaid onto the cells, and the preparations were incubated at room temperature for 1 hour. The cells on coverslips were washed with PBS, and fluorescence-conjugated secondary antibodies were applied for 1 hour at room temperature. After being washed with PBS, coverslips were mounted onto slides. The fluorescence color for cell nucleus was dark blue and BP180 was bright green. All preparations were examined by the confocal microscopy.

| Structure (SMILES) | secretion of IL-6 (IL-6) | secretion of IL-8 (IL-8; HaCaT cells treated with BP-IgG or Specific-IgG 2 mg/mL, 0.1, 1, 10 μM) | IL-8 mRNA expression levels (IL-8 mRNA) | cytotoxicity to HaCaT cells (HaCaT cells; treatment at 0.1-10 μM) | IL-6 mRNA expression levels (IL-6 mRNA) | secretion of IL-8 (IL-8; 0.1 μM, HaCaT cells treated with specific anti-BP180 IgG) | secretion of IL-8 (IL-8; 1 or 10 μM, HaCaT cells treated with specific anti-BP180 IgG) | HaCaT viability in presence of IgG (HaCaT cells; 10 μM, with Healthy-IgG, BP-IgG or BP Specific-IgG) | HaCaT viability (HaCaT cells; treatment at 0.1-10 μM) [%] | membranous localization of BP180 (BP180 internalization) (BP180) |
| --- | --- | --- | --- | --- | --- | --- | --- | --- | --- | --- |
| CCC(=O)O[C@]1(C(=O)CCl)[C@@H](C)C[C@H]2[C@@H]3CCC4=CC(=O)C=C[C@]4(C)[C@@]3(F)[C@@H](O)C[C@@]21C [clobetasol propionate] | reduced IL-6 (FIG. 1a) and IL-8 secretion (FIG. 1b) in a dose-dependent manner | reduced IL-6 (FIG. 1a) and IL-8 secretion (FIG. 1b) in a dose-dependent manner | significantly reduced the IL-6 and IL-8 mRNA expression levels | did not have significant cytotoxicity | significantly reduced the IL-6 and IL-8 mRNA expression levels |  |  |  |  |  |
| COc1ccc2cc3[n+](cc2c1OC)CCc1cc2c(cc1-3)OCO2 [berberine, 5,6-dihydro-9,10-dimethoxybenzo(g)-1,3-benzodioxolo (5,6-a) quinolizinium] |  |  |  | did not have significant cytotoxicity |  |  |  |  |  |  |
| CC(=O)Oc1cccc2c1C(=O)c1c(OC(C)=O)cc(C(=O)O)cc1C2=O [diacerein, 4,5-bis (acetyloxy) 9, 10-dihydro-4,5-dihydroxy-9, 10-dioxo-2-anthracenecarboxylic acid] | significantly reduced secretion of IL-6 |  | inhibitory effects on IL-8 mRNA only at 10 μM | significant cytotoxicity | dose-dependent inhibitory effects on IL-6 mRNA expression levels | did not reduce the secretion of IL-8 | inhibitory effects of diacerein on IL-8 secretion were noted only at concentrations at 1 or 10 μM | still significantly reduced HaCaT viability | 50 | membranous localization of BP180 was restored |
